Experimental data as given in US9707269B2, “Sugar compositions for treating hemophilia A and/or von Willebrand disease” (CSL Behring GmbH, priority 2012, dated 2017).
Entries after “also recorded” stand apart in the source; their conditions may differ.

Key:
[1] = system: clearance receptors; assay: Inhibition of pd VWF monomer interaction with clearance receptors by monosaccharides (Example 8); format: binding; settings: in the presence of monosaccharides; example without data
Excerpt: According to example 7, the interaction of pd VWF monomers with clearance receptors mentioned earlier is inhibited in the in the presence of monosaccharides such as galactose, fucose and N-acetylgalactosamine.

[2] = target: T1, rhASGPR (Homo sapiens, UniProt P07306); assay: SPR inhibition of ASF binding to rhASGPR by monosaccharides; settings: in the presence of the monosaccharide, FIG. 11
T1 construct: The extracellular domains of receptor proteins were acquired from R&D Systems (Wiesbaden, Germany); purchased R&D Systems (Wiesbaden, Germany)
T1 sequence (P07306 62-291 limits assumed): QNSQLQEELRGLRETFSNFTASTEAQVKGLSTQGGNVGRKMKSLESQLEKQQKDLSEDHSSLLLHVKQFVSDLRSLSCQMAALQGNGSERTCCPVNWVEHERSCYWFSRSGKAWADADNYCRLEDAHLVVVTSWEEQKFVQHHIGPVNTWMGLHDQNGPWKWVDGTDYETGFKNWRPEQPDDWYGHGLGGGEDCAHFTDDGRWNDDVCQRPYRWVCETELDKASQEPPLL
Method: (§1) SPR technology (Biacore T200, GE Healthcare Biosciences, Uppsala, Sweden) was applied to evaluate mechanisms of realtime biomolecular interactions between VWF, receptor-blocking agents and clearance receptor candidates. The interaction experiments were performed at a flow cell temperature of +25° C. by applying running buffer containing 10 mM HEPES, 150 mM NaCl, 5 mM CaCl2 and 0.05% Tween-20 at pH 7.4, which was also used as sample dilution buffer. Reagents and buffer stock solutions were purchased from GE Healthcare Biosciences (Uppsala, Sweden). The extracellular domains of receptor proteins were acquired from R&D Systems (Wiesbaden, Germany). The ligands were captured on Series S Sensor […] pretreated according to the manufacturer's instructions. The receptor proteins were covalently immobilized through free amine groups to the carboxymethylated dextran matrix by applying the amine coupling kit according to the manufacturer protocol. A blank flow cell without immobilized protein was included as a reference surface on the chip for bulk shift and nonspecific binding changes.
(§2) Increasing concentrations of both ASF and fetuin ranging from 10,240 to 10 nM were prepared as a 2 fold serial dilution series in running buffer and sequentially injected across the chip surface at 25 μL/min in order to characterize protein-ligand interaction. […]
Kinetic data were analyzed using Biacore T200 Evaluation Software Version 1.0 (GE Healthcare Biosciences, Uppsala, Sweden). An interaction of the analyte with the ligand was detected by an increase in accumulating mass and specific binding was identified by subtracting the binding response recorded from the control surface, followed by subtracting an average of the buffer blank injections. A report point was positioned 20 seconds after the end of sample injection and was evaluated as representative for a stable protein-ligand interaction, which was of interest. […] Furthermore, the response was calculated relative to the baseline in each case. […]

[3] = system: clearance receptor candidates; assay: Interaction of pd VWF multimers with clearance receptor candidates and its inhibition (Example 10); format: binding; settings: example without data; for inhibition of binding of pd VWF multimers to clearance receptor candidates: in the presence of ASF or monosaccharides
Excerpt: According to Example 9, pd VWF multimers interact with clearance receptor candidates mentioned earlier. In addition, binding is inhibited in the presence of ASF or monosaccharides such as galactose, fucose and N-acetylgalactosamine.

[4] = target: T2, rhSCARA5 (Homo sapiens, UniProt Q6ZMJ2); assay: SPR binding to immobilized clearance receptor rhSCARA5; settings: 25 °C, 5 mM CaCl2, pH 7.4, FIGS. 9 and 10
T2 construct: The extracellular domains of receptor proteins were acquired from R&D Systems (Wiesbaden, Germany); purchased R&D Systems (Wiesbaden, Germany)
T2 sequence (Q6ZMJ2 82-495 limits assumed): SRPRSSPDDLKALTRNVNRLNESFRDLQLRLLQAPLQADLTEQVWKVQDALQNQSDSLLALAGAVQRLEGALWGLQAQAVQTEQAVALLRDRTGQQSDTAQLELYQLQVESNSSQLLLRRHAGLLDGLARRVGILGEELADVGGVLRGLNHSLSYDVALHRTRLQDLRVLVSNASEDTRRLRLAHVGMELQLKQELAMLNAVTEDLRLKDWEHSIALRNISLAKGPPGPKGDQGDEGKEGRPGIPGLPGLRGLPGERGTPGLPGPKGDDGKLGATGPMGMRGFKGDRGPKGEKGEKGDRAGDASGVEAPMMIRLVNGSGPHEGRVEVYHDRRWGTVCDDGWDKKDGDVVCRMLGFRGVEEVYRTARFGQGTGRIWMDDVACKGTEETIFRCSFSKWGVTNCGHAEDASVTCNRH
Method: as §1, §2
(§3) Kinetic data were analyzed using Biacore T200 Evaluation Software Version 1.0 (GE Healthcare Biosciences, Uppsala, Sweden). An interaction of the analyte with the ligand was detected by an increase in accumulating mass and specific binding was identified by subtracting the binding response recorded from the control surface, followed by subtracting an average of the buffer blank injections. A report point was positioned 20 seconds after the end of sample injection and was evaluated as representative for a stable protein-ligand interaction, which was of interest. […] Furthermore, the response was calculated relative to the baseline in each case.

[5] = target: T1, rhASGPR; assay: SPR binding to immobilized clearance receptor rhASGPR; settings: 25 °C, 5 mM CaCl2, pH 7.4, FIGS. 9 and 10
Method: SPR technology (Biacore T200, GE Healthcare Biosciences, Uppsala, Sweden) was applied to evaluate mechanisms of realtime biomolecular interactions between VWF, receptor-blocking agents and clearance receptor candidates. The interaction experiments were performed at a flow cell temperature of +25° C. by applying running buffer containing 10 mM HEPES, 150 mM NaCl, 5 mM CaCl2 and 0.05% Tween-20 at pH 7.4, which was also used as sample dilution buffer. Reagents and buffer stock solutions were purchased from GE Healthcare Biosciences (Uppsala, Sweden). The extracellular domains of receptor proteins were acquired from R&D Systems (Wiesbaden, Germany). […]
as §3

[6] = target: T3, rhCOLEC12 (Homo sapiens, UniProt Q5KU26); assay: SPR binding to immobilized clearance receptor rhCOLEC12; settings: 25 °C, 5 mM CaCl2, pH 7.4, FIGS. 9 and 10
T3 construct: The extracellular domains of receptor proteins were acquired from R&D Systems (Wiesbaden, Germany); purchased R&D Systems (Wiesbaden, Germany)
T3 sequence (Q5KU26 59-742 limits assumed): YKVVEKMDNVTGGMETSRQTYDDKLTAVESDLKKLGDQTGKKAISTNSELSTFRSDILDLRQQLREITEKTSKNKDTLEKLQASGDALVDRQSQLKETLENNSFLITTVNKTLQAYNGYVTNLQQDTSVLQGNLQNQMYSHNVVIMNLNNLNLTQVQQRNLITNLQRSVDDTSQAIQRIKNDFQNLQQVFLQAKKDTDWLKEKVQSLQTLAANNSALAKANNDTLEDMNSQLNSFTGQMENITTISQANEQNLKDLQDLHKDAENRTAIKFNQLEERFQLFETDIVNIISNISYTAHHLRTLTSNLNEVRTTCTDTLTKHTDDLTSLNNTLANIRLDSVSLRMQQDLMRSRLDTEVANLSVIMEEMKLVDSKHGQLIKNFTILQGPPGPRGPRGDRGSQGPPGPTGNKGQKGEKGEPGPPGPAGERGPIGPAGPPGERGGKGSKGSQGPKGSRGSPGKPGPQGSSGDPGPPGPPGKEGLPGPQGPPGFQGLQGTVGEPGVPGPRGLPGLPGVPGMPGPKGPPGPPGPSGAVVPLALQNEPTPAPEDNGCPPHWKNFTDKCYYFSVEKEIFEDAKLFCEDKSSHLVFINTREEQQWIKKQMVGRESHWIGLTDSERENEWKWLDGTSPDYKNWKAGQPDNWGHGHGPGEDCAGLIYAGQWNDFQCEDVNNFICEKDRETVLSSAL
Method: as §1, §2, §3

[7] = target: T4, rmCLEC4F (Mus musculus, UniProt P70194); assay: SPR binding to immobilized clearance receptor rmCLEC4F; settings: 25 °C, 5 mM CaCl2, pH 7.4, FIGS. 9 and 10
T4 construct: The extracellular domains of receptor proteins were acquired from R&D Systems (Wiesbaden, Germany); purchased R&D Systems (Wiesbaden, Germany)
T4 sequence (P70194 70-548 limits assumed): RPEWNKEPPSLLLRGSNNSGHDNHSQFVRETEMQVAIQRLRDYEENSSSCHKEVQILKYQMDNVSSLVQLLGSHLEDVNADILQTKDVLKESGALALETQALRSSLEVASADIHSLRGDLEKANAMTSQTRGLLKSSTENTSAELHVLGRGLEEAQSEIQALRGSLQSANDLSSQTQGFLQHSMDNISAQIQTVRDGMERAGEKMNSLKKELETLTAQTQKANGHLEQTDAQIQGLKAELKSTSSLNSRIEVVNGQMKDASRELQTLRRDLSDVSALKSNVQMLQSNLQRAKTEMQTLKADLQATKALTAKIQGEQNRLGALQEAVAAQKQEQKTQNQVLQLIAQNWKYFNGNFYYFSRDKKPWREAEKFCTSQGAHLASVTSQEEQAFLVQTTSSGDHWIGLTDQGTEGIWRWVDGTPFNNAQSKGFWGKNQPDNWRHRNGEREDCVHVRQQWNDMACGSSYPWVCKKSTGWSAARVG
Method: as §1, §2, §3

[8] = target: T5, rhCLEC4M (Homo sapiens, UniProt Q9H2X3); assay: SPR binding to immobilized clearance receptor rhCLEC4M; settings: 25 °C, 5 mM CaCl2, pH 7.4, FIGS. 9 and 10
T5 construct: The extracellular domains of receptor proteins were acquired from R&D Systems (Wiesbaden, Germany); purchased R&D Systems (Wiesbaden, Germany)
T5 sequence (Q9H2X3 71-399 limits assumed): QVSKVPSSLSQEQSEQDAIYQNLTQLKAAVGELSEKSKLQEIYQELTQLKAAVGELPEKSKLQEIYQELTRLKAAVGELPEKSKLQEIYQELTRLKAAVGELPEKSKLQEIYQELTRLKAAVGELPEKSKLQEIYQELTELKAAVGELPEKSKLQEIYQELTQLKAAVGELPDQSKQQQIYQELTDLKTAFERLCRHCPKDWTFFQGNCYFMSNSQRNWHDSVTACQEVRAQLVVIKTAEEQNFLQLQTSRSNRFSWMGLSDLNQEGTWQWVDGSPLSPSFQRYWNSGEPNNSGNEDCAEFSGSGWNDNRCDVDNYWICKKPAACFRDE
Method: as §1, §2, §3

[9] = target: T6, rhCLEC10A (Homo sapiens, UniProt Q8IUN9); assay: SPR binding to immobilized clearance receptor rhCLEC10A; settings: 25 °C, 5 mM CaCl2, pH 7.4, FIGS. 9 and 10
T6 construct: The extracellular domains of receptor proteins were acquired from R&D Systems (Wiesbaden, Germany); purchased R&D Systems (Wiesbaden, Germany)
T6 sequence (Q8IUN9 61-316 limits assumed): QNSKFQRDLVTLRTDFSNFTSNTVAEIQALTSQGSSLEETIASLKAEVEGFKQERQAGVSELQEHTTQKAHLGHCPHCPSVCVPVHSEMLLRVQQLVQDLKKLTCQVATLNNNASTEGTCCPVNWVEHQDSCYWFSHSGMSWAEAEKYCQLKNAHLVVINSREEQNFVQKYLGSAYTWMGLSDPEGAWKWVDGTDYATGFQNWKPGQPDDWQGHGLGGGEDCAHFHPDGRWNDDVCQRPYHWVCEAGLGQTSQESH
Method: as §1, §2, §3

[10] = target: T1, rhASGPR; assay: Solid-phase binding assay of multimeric VWF with rhASGPR; settings: VWF 100 to 3 μg/mL, 1 hour at +37 °C; FIG. 12
Excerpt: In addition to SPR-based interaction analysis with monomeric VWF, the interaction of multimeric VWF (purified from human plasma) with rhASGPR was investigated by using solid-phase binding assay. In addition, asialo-VWF (plasma derived VWF after treatment with α(2-3,6,8)-neuraminidase) was used as control.
Lyophilized rhASGPR (R&D Systems, Wiesbaden, Germany) was reconstituted and diluted in 0.05 M carbonate-bicarbonate buffer at pH 9.6, adsorbed onto high-adsorption 96-microwell plates at RT overnight, and subsequently washed with washing buffer (50 mM Tris, 150 mM NaCl, 5 mM CaCl2 and 0.1% (w/v) Tween-20 at pH 7.4). Afterwards, the wells were incubated for 1 hour with blocking solution (50 mM Tris, 150 mM NaCl, 5 mM CaCl2 and 2.5% (w/v) BSA at pH 7.4) in order to block non-specific binding, and then washed with washing buffer again. […] After washing the wells, associated VWF was subsequently detected by a commercial polyclonal rabbit anti-human VWF antibody conjugated with HRP (DakoCytomation, Glostrup, Denmark) that had been previously diluted 1:16,000 in dilution buffer. […] The reaction was stopped with stopping solution POD (Siemens Healthcare Diagnostics, Marburg, Germany) and the substrate reaction was photometrically monitored by measuring the difference in wave lengths at 450 nm and 620 nm.

With `C[C@H](O)[C@@H](O)[C@@H](O)[C@H](O)C=O` [Fuc, fucose] the “inhibition of interaction of pd VWF monomers with clearance receptors” value (from here on “inhibition … with clearance receptors”) [1] was “inhibited”, the “inhibition of ASF binding to immobilized rhASGPR” value (from here on “inhibition of ASF binding”) [2] was “decreased binding; also recorded: inhibited binding” and the “inhibition of binding of pd VWF multimers to clearance receptor candidates” value (“inhibition … to clearance receptor candidates” below) [3] was “inhibited”.

In the case of `O=C[C@H](O)[C@@H](O)[C@@H](O)[C@H](O)CO` [Gal, galactose], the “inhibition … with clearance receptors” value [1] is reported as “inhibited”, the “inhibition of ASF binding” value [2] is reported as “decreased binding; also recorded: inhibited binding” and the “inhibition … to clearance receptor candidates” value [3] is reported as “inhibited”.

With `CC(=O)N[C@H]1C(O)O[C@H](CO)[C@H](O)[C@@H]1O` (stereo partly drawn) [GalNac, N-acetylgalactosamine] the “inhibition … with clearance receptors” value [1] was “inhibited”, the “inhibition of ASF binding” value [2] was “decreased binding; also recorded: inhibited binding” and the “inhibition … to clearance receptor candidates” value [3] was “inhibited”.

With “VWF: purified VWF monomers (pd VWF after reduction with dithiothreitol and carboxymethylation with iodoacetamide)” the “SPR binding to rhSCARA5” value [4] was “bind efficiently”, the “SPR binding to rhASGPR” value [5] was “bind efficiently” and the “SPR binding to rhCOLEC12” value [6] was “bind efficiently”. For the same compound, the “SPR binding to rmCLEC4F” value [7] was “bind efficiently”, the “SPR binding to rhCLEC4M” value [8] was “bind efficiently” and the “SPR binding to rhCLEC10A” value [9] was “bind efficiently”.

“asialo-VWF multimers: plasma derived VWF after treatment with α(2-3,6,8)-neuraminidase, used as control” was tested, and the “interaction with rhASGPR, solid-phase binding assay” value [10] was “interacted with rhASGPR”.

In the case of “asialofetuin: bovine ASF (fetuin after the removal of terminal sialic acid residues), ligand blocking galactose receptors such as ASGPR”, the “SPR binding to rhSCARA5” value [4] is reported as “bind efficiently”, the “SPR binding to rhCOLEC12” value [6] is reported as “bind efficiently” and the “SPR binding to rmCLEC4F” value [7] is reported as “bind efficiently”. The “inhibition … to clearance receptor candidates” value [3] was “inhibited”, the “SPR binding to rhCLEC4M” value [8] was “bind efficiently” and the “SPR binding to rhCLEC10A” value [9] was “bind efficiently”.

fetuin [reference compound] was tested, and the “SPR binding to rhSCARA5” value [4] was “almost not”, the “SPR binding to rhASGPR” value [5] was “almost not” and the “SPR binding to rhCOLEC12” value [6] was “almost not”. For the same compound, the “SPR binding to rmCLEC4F” value [7] was “almost not”, the “SPR binding to rhCLEC4M” value [8] was “almost not” and the “SPR binding to rhCLEC10A” value [9] was “almost not”.

For “plasma derived VWF multimers: multimeric VWF purified from human plasma, native glycosylation structure without modifications”, the “interaction with rhASGPR, solid-phase binding assay” value [10] was “interacted with rhASGPR” and the “interaction of pd VWF multimers with clearance receptor candidates” value ([3]; according to Example 9) was “interact”.
